# According to ChEMBL document CHEMBL1142843, “Synthesis and evaluation of a series of tropane analogues as novel vesicular monoamine transporter-2 ligands” (Bioorg Med Chem Lett, 2005):
# Key:
# [1] = target: T1, Synaptic vesicular amine transporter (Rattus norvegicus, UniProt Q01827); experiment: Inhibition constant against [3H]dihydrotetrabenazine binding to vesicular monoamine transporter-2 of rat synaptic vesicle membranes
# [2] = target: Neuronal acetylcholine receptor alpha4beta2 (Rattus norvegicus); experiment: Inhibition constant against [3H]nicotine binding to alpha4beta2 nicotinic acetylcholine receptor of rat brain membranes
# [3] = target: Neuronal acetylcholine receptor alpha7 (Rattus norvegicus); experiment: Inhibition constant against [3H]methyllycaconitine binding to alpha7 nicotinic acetylcholine receptor of rat brain membranes
# [4] = target: T1, Synaptic vesicular amine transporter; experiment: Inhibition constant against [3H]nicotine binding to vesicular monoamine transporter-2 of rat brain membranes
# [5] = target: T1, Synaptic vesicular amine transporter; experiment: Inhibition constant against [3H]methyllycaconitine binding to vesicular monoamine transporter-2 of rat brain membranes
# T1 sequence (Q01827 whole entry): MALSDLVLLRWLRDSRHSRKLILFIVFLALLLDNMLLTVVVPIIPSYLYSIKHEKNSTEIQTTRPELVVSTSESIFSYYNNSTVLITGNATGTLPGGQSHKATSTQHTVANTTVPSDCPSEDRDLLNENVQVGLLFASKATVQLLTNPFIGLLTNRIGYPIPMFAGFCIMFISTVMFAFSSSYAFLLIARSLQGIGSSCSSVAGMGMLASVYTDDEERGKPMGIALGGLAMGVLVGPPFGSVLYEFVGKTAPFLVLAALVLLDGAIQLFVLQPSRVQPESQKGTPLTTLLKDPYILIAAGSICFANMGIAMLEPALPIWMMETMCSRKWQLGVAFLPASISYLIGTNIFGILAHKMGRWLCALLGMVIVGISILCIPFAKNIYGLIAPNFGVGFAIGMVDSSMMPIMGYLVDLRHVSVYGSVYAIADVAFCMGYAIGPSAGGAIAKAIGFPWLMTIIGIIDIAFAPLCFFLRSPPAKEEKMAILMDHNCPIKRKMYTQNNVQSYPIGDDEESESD
Structure (SMILES),Ki [1],Ki [2],Ki [3],Ki [4],Ki [5]
CN1C2CCC1[C@@H](Cc1ccccc1)C(O)[C@H]2Cc1ccccc1 (stereo in doubt; 7a),> 100 µM,> 100 µM,> 100 µM,–,–
CN1C2CCC1[C@@H](Cc1ccccc1)C(O)[C@H]2Cc1ccccc1 (stereo in doubt; 7b),> 100 µM,–,–,> 100 µM,> 100 µM
CN1C2CCC1[C@@H](Cc1ccc(F)cc1)C=C2Cc1ccc(F)cc1 (stereo partly drawn),1.38 µM,> 100 µM,> 100 µM,–,–
COc1ccc(CC2=C[C@H](Cc3ccc(OC)cc3)C3CCC2N3C)cc1 (stereo partly drawn),4.8 µM,> 100 µM,> 100 µM,–,–
CN1C2CC=C(Cc3ccccc3)C1CC2 (stereo not drawn),> 100 µM,1.84 µM,15.2 µM,–,–
COc1ccc(C[C@@H]2C[C@H](Cc3ccc(OC)cc3)C3CCC2N3C)cc1,3.88 µM,> 100 µM,> 100 µM,–,–
CN1C2CCC1[C@@H](Cc1ccccc1)C[C@H]2Cc1ccccc1,> 100 µM,> 100 µM,> 100 µM,–,–
CN1C2CCC1[C@@H](Cc1ccc(F)cc1)C[C@H]2Cc1ccc(F)cc1,> 100 µM,> 100 µM,> 100 µM,–,–
CN1C2CCC1[C@@H](Cc1ccccc1)C(=O)[C@H]2Cc1ccccc1,> 100 µM,> 100 µM,> 100 µM,–,–
CN1C2CCC1[C@@H](CCCc1ccccc1)C[C@H]2CCCc1ccccc1,3.95 µM,> 100 µM,> 100 µM,–,–
CN1C2CCC1[C@H](Cc1ccccc1)CC2 (stereo partly drawn),> 100 µM,> 6.57 µM,14 µM,–,–
